ChEMBL document CHEMBL5614381, “Farnesyl pyrophosphate synthase inhibitors with antiosteoporosis efficacy in ovariectomized rats: A mixed binding approach beyond bisphosphonates” (Eur J Med Chem, 2024)
The source made the active and inactive calls. No cut-off for these calls is given here.

Legend:
[1] = biological target: T1, Farnesyl pyrophosphate synthase (Homo sapiens, UniProt P14324); assay: Inhibition of human recombinant FPPS using IPP as substrate preincubated with enzyme for 15 mins followed by substrate addition and measured after 1 hr
T1 sequence (P14324 whole entry): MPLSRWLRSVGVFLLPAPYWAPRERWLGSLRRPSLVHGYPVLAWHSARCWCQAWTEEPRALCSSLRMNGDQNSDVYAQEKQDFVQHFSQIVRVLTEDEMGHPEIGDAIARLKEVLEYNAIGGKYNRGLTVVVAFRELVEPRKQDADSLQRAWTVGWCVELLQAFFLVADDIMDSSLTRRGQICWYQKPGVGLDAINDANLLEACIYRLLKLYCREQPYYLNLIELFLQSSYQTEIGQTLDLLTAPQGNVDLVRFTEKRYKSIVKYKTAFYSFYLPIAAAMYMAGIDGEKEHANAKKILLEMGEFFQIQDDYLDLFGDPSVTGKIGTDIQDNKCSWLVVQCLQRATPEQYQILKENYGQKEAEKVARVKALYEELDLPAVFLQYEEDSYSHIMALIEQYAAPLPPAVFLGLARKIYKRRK

Rattus norvegicus [2] = assay: Anti-osteoporosis activity against ovariectomized Wistar rat assessed as inhibition of ovariectomy-induced osteoporosis by measuring reduction in serum RANKL level at 0.1 to 10 mg/kg, po administered daily for 8 weeks following bilateral ovariectomy; format: functional, organism-based; settings: dose 0.1-10 mg/kg
Rattus norvegicus [3] = assay: Anti-osteoporosis activity against ovariectomized Wistar rat assessed as inhibition of ovariectomy-induced osteoporosis by measuring fold increase in serum osteoclacin level at 1 to 10 mg/kg, po administered daily for 8 weeks following bilateral ovariectomy relative to ovariectomized control; format: functional; settings: dose 1-10 mg/kg
Rattus norvegicus [4] = assay: Anti-osteoporosis activity against ovariectomized Wistar rat assessed as inhibition of ovariectomy-induced osteoporosis by measuring serum estradiol level at 0.1 to 10 mg/kg, po administered daily for 8 weeks following bilateral ovariectomy; format: functional, organism-based; settings: dose 0.1-10 mg/kg
Rattus norvegicus [5] = assay: Anti-osteoporosis activity against ovariectomized Wistar rat assessed as inhibition of ovariectomy-induced osteoporosis by measuring decrease in bone-specific isoenzyme of alkaline phosphatase level in serum at 10 mg/kg, po administered daily for 8 weeks following bilateral ovariectomy relative to control; format: functional; settings: 1344 h
Rattus norvegicus [6] = assay: Anti-osteoporosis activity against ovariectomized Wistar rat assessed as inhibition of ovariectomy-induced osteoporosis by measuring reduction in serum RANKL/OPG level at 10 mg/kg, po administered daily for 8 weeks following bilateral ovariectomy relative to ovariectomized control; format: functional; settings: 1344 h
Rattus norvegicus [7] = assay: Anti-osteoporosis activity against ovariectomized Wistar rat assessed as inhibition of ovariectomy-induced osteoporosis by measuring increase in serum OPG level at 10 mg/kg, po administered daily for 8 weeks following bilateral ovariectomy relative to ovariectomized control; format: functional; parameters: scale not given: the % may be the effect or the level left
Rattus norvegicus [8] = assay: Anti-osteoporosis activity against ovariectomized Wistar rat assessed as inhibition of ovariectomy-induced osteoporosis by measuring decrease in urinary calcium level at 1 mg/kg, po administered daily for 8 weeks following bilateral ovariectomy; format: functional, organism-based
Rattus norvegicus [9] = assay: Anti-osteoporosis activity against ovariectomized Wistar rat assessed as inhibition of ovariectomy-induced osteoporosis by measuring decrease in serum phosphate level at 1 mg/kg, po administered daily for 8 weeks following bilateral ovariectomy; format: functional, organism-based
Rattus norvegicus [10] = assay: Anti-osteoporosis activity against ovariectomized Wistar rat assessed as inhibition of ovariectomy-induced osteoporosis by measuring decrease in urinary phosphate level at 0.1 to 10 mg/kg, po administered daily for 8 weeks following bilateral ovariectomy; format: functional, organism-based; settings: dose 0.1-10 mg/kg
Rattus norvegicus [11] = assay: Anti-osteoporosis activity against ovariectomized Wistar rat assessed as inhibition of ovariectomy-induced osteoporosis by measuring increase in bone mineral content at 10 mg/kg, po administered daily for 8 weeks following bilateral ovariectomy; format: functional, organism-based
Rattus norvegicus [12] = assay: Anti-osteoporosis activity against ovariectomized Wistar rat assessed as inhibition of ovariectomy-induced osteoporosis by measuring increase in bone mineral density at 1 mg/kg, po administered daily for 8 weeks following bilateral ovariectomy; format: functional, organism-based
Rattus norvegicus [13] = assay: Anti-osteoporosis activity against ovariectomized Wistar rat assessed as inhibition of ovariectomy-induced osteoporosis by measuring reduction in serum RANKL level at 7.5 ug/kg, ip administered once a week for 8 weeks following bilateral ovariectomy; format: functional, organism-based; settings: dose 7.5 µg/kg
Rattus norvegicus [14] = assay: Anti-osteoporosis activity against ovariectomized Wistar rat assessed as inhibition of ovariectomy-induced osteoporosis by measuring increase in serum osteoclacin level at 7.5 ug/kg, ip administered once a week for 8 weeks following bilateral ovariectomy relative to ovariectomized control; format: functional; parameters: scale not given: the % may be the effect or the level left; settings: dose 7.5 µg/kg
Rattus norvegicus [15] = assay: Anti-osteoporosis activity against ovariectomized Wistar rat assessed as inhibition of ovariectomy-induced osteoporosis by measuring decrease in bone-specific isoenzyme of alkaline phosphatase level in serum at 7.5 ug/kg, ip administered once a week for 8 weeks following bilateral ovariectomy; format: functional, organism-based; settings: dose 7.5 µg/kg
Rattus norvegicus [16] = assay: Anti-osteoporosis activity against ovariectomized Wistar rat assessed as inhibition of ovariectomy-induced osteoporosis by measuring reduction in serum RANKL/OPG level at 7.5 ug/kg, ip administered once a week for 8 weeks following bilateral ovariectomy relative to ovariectomized control; format: functional; settings: 1344 h, dose 7.5 µg/kg
Rattus norvegicus [17] = assay: Anti-osteoporosis activity against ovariectomized Wistar rat assessed as inhibition of ovariectomy-induced osteoporosis by measuring increase in serum OPG level at 7.5 ug/kg, ip administered once a week for 8 weeks following bilateral ovariectomy relative to ovariectomized control; format: functional; parameters: scale not given: the % may be the effect or the level left; settings: dose 7.5 µg/kg
Rattus norvegicus [18] = assay: Anti-osteoporosis activity against ovariectomized Wistar rat assessed as inhibition of ovariectomy-induced osteoporosis by measuring decrease in serum calcium level at 7.5 ug/kg, ip administered once a week for 8 weeks following bilateral ovariectomy; format: functional, organism-based; settings: dose 7.5 µg/kg
Rattus norvegicus [19] = assay: Anti-osteoporosis activity against ovariectomized Wistar rat assessed as inhibition of ovariectomy-induced osteoporosis by measuring decrease in serum phosphate level at 7.5 ug/kg, ip administered once a week for 8 weeks following bilateral ovariectomy; format: functional, organism-based; settings: dose 7.5 µg/kg
Rattus norvegicus [20] = assay: Anti-osteoporosis activity against ovariectomized Wistar rat assessed as inhibition of ovariectomy-induced osteoporosis by measuring decrease in urinary calcium level at 7.5 ug/kg, ip administered once a week for 8 weeks following bilateral ovariectomy; format: functional, organism-based; settings: dose 7.5 µg/kg
Rattus norvegicus [21] = assay: Anti-osteoporosis activity against ovariectomized Wistar rat assessed as inhibition of ovariectomy-induced osteoporosis by measuring decrease in urinary phosphate level at 7.5 ug/kg, ip administered once a week for 8 weeks following bilateral ovariectomy; format: functional, organism-based; settings: dose 7.5 µg/kg
Rattus norvegicus [22] = assay: Anti-osteoporosis activity against ovariectomized Wistar rat assessed as inhibition of ovariectomy-induced osteoporosis by measuring serum estradiol level at 7.5 ug/kg, ip administered once a week for 8 weeks following bilateral ovariectomy; format: functional, organism-based; settings: dose 7.5 µg/kg

CCN(CC)P(=O)(C(O)c1ccc(OCCOc2ccc(C(O)P(=O)(N(CC)CC)N(CC)CC)cc2OC)c(OC)c1)N(CC)CC (stereo unspecified)
IC50 [1]: 2.47 µM

COc1cc(C=O)ccc1OCCOc1ccc(C=O)cc1OC
IC50 [1]: 12.6 µM

COc1cc(/C=C/C#N)ccc1OCCOc1ccc(/C=C/C#N)cc1OC
IC50 [1]: 3.22 µM

COc1cc(/C=C/C(C)=O)ccc1OCCOc1ccc(/C=C/C(C)=O)cc1OC
Activity (Rattus norvegicus [2]): inactive | IC50 [1]: 1.11 µM | fold change (FC) (Rattus norvegicus [3]): 2 | Activity (Rattus norvegicus [4]): inactive | inhibition in vivo at 10 mg/kg (Rattus norvegicus [5]): 33% | inhibition in vivo at 10 mg/kg (Rattus norvegicus [6]): 33.3% | Activity (Rattus norvegicus [7]): 29% | Activity (Rattus norvegicus [8]): Active | Activity (Rattus norvegicus [9]): Active | Activity (Rattus norvegicus [10]): Active | Activity (Rattus norvegicus [11]): Active | Activity (Rattus norvegicus [12]): Active

COC(=O)/C=C/c1ccc(OCCOc2ccc(/C=C/C(=O)OC)cc2OC)c(OC)c1
IC50 [1]: 1.24 µM

COc1cc(C=S)ccc1OCCOc1ccc(C=S)cc1OC
IC50 [1]: 22.7 µM

O=P(O)(O)C(O)(Cn1ccnc1)P(=O)(O)O [ZOLEDRONIC ACID ANHYDROUS]
Activity (Rattus norvegicus [13]): inactive | Activity (Rattus norvegicus [14]): 174% | Activity (Rattus norvegicus [15]): Active | inhibition in vivo at 0.0075 mg/kg (Rattus norvegicus [16]): 38% | Activity (Rattus norvegicus [17]): 46% | Activity (Rattus norvegicus [18]): Active | Activity (Rattus norvegicus [19]): Active | Activity (Rattus norvegicus [20]): inactive | Activity (Rattus norvegicus [21]): Active | Activity (Rattus norvegicus [22]): inactive

COc1cc(C(O)P(=O)(OC)OC)ccc1OCCOc1ccc(C(O)P(=O)(OC)OC)cc1OC (stereo unspecified)
IC50 [1]: 21.4 µM

CCOC(=O)/C=C/c1ccc(OCCOc2ccc(/C=C/C(=O)OCC)cc2OC)c(OC)c1
IC50 [1]: 5.98 µM

COc1cc(C2SP(=S)(Sc3ccccc3)S2)ccc1OCCOc1ccc(C2SP(=S)(Sc3ccccc3)S2)cc1OC (stereo unspecified)
IC50 [1]: 3.37 µM

COc1cc(C(O)P(=O)(N(C)C)N(C)C)ccc1OCCOc1ccc(C(O)P(=O)(N(C)C)N(C)C)cc1OC (stereo unspecified)
IC50 [1]: 5.54 µM
